Experimental data as given in ChEMBL document CHEMBL1155656, “Thirteen novel cycloartane-type triterpenes from Combretum quadrangulare” (2000).
Values after ≈ are worked out from the molar mass of the structure shown.

experiment: Cytotoxicity against mouse 26-L5 cells; assay type: functional; conditions: read-out: ED50 (the source's name)

SMILES | EC50
C=C(C)[C@H](O)CC[C@@H](C(=O)O)[C@H]1CC[C@@]2(C)[C@@H]3CC[C@H]4[C@](C)(C(=O)OC)[C@@H](O)C[C@H](O)[C@@]45C[C@@]35CC[C@]12C | > 100 µg/mL
C=C(C)[C@@H](O)CC[C@@H](C(=O)O)[C@H]1CC[C@@]2(C)[C@@H]3CC[C@H]4[C@](C)(C(=O)OC)[C@@H](O)C[C@H](O)[C@@]45C[C@@]35CC[C@]12C [QUADRANGULARIC ACID G] | > 100 µg/mL
C[C@H](CC[C@@H](O)C(C)(C)O)[C@H]1CC[C@@]2(C)[C@@H]3CC[C@H]4[C@](C)(C(=O)O)[C@@H](O)C[C@H](O)[C@@]45C[C@@]35CC[C@]12C [QUADRANGULARIC ACID L] | > 100 µg/mL
C=C(C)C(=O)CC[C@@H](C(=O)O)[C@H]1CC[C@@]2(C)[C@@H]3CC[C@H]4[C@](C)(C(=O)O)[C@@H](O)C[C@H](O)[C@@]45C[C@@]35CC[C@]12C [QUADRANGULARIC ACID H] | > 100 µg/mL
COC(=O)[C@]1(C)[C@@H](O)C[C@H](O)[C@]23C[C@]24CC[C@]2(C)[C@@H]([C@@H](C/C=C/C(C)(C)OO)C(=O)O)CC[C@@]2(C)[C@@H]4CC[C@@H]13 [QUADRANGULARIC ACID F] | > 100 µg/mL
C[C@H](CCC(=O)O)[C@H]1CC[C@@]2(C)[C@@H]3CC[C@H]4[C@](C)(C(=O)O)[C@@H](O)C[C@H](O)[C@@]45C[C@@]35CC[C@]12C [NORQUADRANGULARIC ACID A] | > 100 µg/mL
C=C(C)[C@@H](O)CC[C@@H](CO)[C@H]1CC[C@@]2(C)[C@@H]3CC[C@H]4[C@](C)(C(=O)OC)[C@@H](O)C[C@H](O)[C@@]45C[C@@]35CC[C@]12C [METHYL QUADRANGULARATE] | 29.4 µg/mL (≈ 56.7 µM)
COC(C)(C)/C=C/C[C@@H](C)[C@H]1CC[C@@]2(C)[C@@H]3CC[C@H]4[C@](C)(C(=O)O)[C@@H](O)C[C@H](O)[C@@]45C[C@@]35CC[C@]12C [QUADRANGULARIC ACID J] | 86.1 µg/mL (≈ 171 µM)
C[C@H](CC[C@H](O)C(C)(C)O)[C@H]1CC[C@@]2(C)[C@@H]3CC[C@H]4[C@](C)(C(=O)O)[C@@H](O)C[C@H](O)[C@@]45C[C@@]35CC[C@]12C | > 100 µg/mL
C=C(CC[C@@H](C)[C@H]1CC[C@@]2(C)[C@@H]3[C@@H](O)C[C@H]4[C@](C)(C(=O)O)[C@@H](O)C[C@H](O)[C@@]45C[C@@]35CC[C@]12C)C(C)C | 37.3 µg/mL (≈ 74.2 µM)
C[C@H](C/C=C\C(C)(C)O)[C@H]1CC[C@@]2(C)[C@@H]3CC[C@H]4[C@](C)(C(=O)O)[C@@H](O)C[C@H](O)[C@@]45C[C@@]35CC[C@]12C [QUADRANGULARIC ACID K] | 82.6 µg/mL (≈ 169 µM)
